# Test results reported in PubChem BioAssay (NCI).
#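 Exposure lasted 48 hours, with cells grown in 96-well plates and compounds tested at five concentrations. GI50 = concentration required for 50% inhibition of growth. Definition used: TGI = concentration required for complete inhibition of growth.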
# How the values were obtained:
# Assay in all cases: NCI anticancer screen, dose series, 48 h
# HOP-92 NSCLC = system: HOP-92 NSCLC
# MOLT-4 leukemia = system: MOLT-4 leukemia
# NCI-H522 lung = system: NCI-H522 lung
# LOX IMVI melanoma = system: LOX IMVI melanoma
# OVCAR-5 ovarian = system: OVCAR-5 ovarian
# K-562 leukemia = system: K-562 leukemia
# HL-60(TB) leukemia = system: HL-60(TB) leukemia
# A549 NSCLC = system: A549 NSCLC
# TK-10 renal = system: TK-10 renal
# BT-549 breast = system: BT-549 breast
# MALME-3M melanoma = system: MALME-3M melanoma
# T-47D breast = system: T-47D breast
# RPMI-8226 leukemia = system: RPMI-8226 leukemia
# SF-268 CNS = system: SF-268 CNS
# RXF 393 renal = system: RXF 393 renal
# OVCAR-3 ovarian = system: OVCAR-3 ovarian
# NCI-H226 lung = system: NCI-H226 lung
# ACHN renal = system: ACHN renal
# SW-620 colon = system: SW-620 colon
# IGROV1 ovarian = system: IGROV1 ovarian
# UO-31 renal = system: UO-31 renal
# 786-0 renal = system: 786-0 renal
# MDA-MB-231 breast = system: MDA-MB-231 breast
# SK-OV-3 ovarian = system: SK-OV-3 ovarian
# U251 CNS = system: U251 CNS
# HS 578T breast = system: HS 578T breast
# MCF7 breast = system: MCF7 breast
# MDA-MB-468 breast = system: MDA-MB-468 breast
# HCC-2998 colon = system: HCC-2998 colon
# CCRF-CEM leukemia = system: CCRF-CEM leukemia
# HOP-62 NSCLC = system: HOP-62 NSCLC
# OVCAR-8 ovarian = system: OVCAR-8 ovarian
# NCI-H23 lung = system: NCI-H23 lung
# SF-295 CNS = system: SF-295 CNS
# EKVX NSCLC = system: EKVX NSCLC
# OVCAR-4 ovarian = system: OVCAR-4 ovarian
# CAKI-1 renal = system: CAKI-1 renal
# UACC-257 melanoma = system: UACC-257 melanoma
# COLO 205 colon = system: COLO 205 colon
# MDA-MB-435 = system: MDA-MB-435
# SNB-75 CNS = system: SNB-75 CNS
# UACC-62 melanoma = system: UACC-62 melanoma
# SF-539 CNS = system: SF-539 CNS
# SN12C renal = system: SN12C renal
# KM12 colon = system: KM12 colon
# A498 renal = system: A498 renal
# HCT-15 colon = system: HCT-15 colon
# SR leukemia = system: SR leukemia
# HCT-116 colon = system: HCT-116 colon
# SK-MEL-2 melanoma = system: SK-MEL-2 melanoma
# M14 melanoma = system: M14 melanoma
# DU-145 prostate = system: DU-145 prostate
# SNB-19 CNS = system: SNB-19 CNS
# NCI-H460 lung = system: NCI-H460 lung
# SK-MEL-5 melanoma = system: SK-MEL-5 melanoma
# NCI/ADR-RES ovarian = system: NCI/ADR-RES ovarian
# PC-3 prostate = system: PC-3 prostate
# HT29 colon = system: HT29 colon
# SK-MEL-28 melanoma = system: SK-MEL-28 melanoma
structure (smiles),measurement,setting,value
Cc1ccc(-c2cc(C(=O)N=Nc3c(O)[nH]c4ccccc34)c3ccccc3n2)cc1,GI50,HOP-92 NSCLC,11.2 µM
same,TGI,HOP-92 NSCLC,36.4 µM
same,GI50,MOLT-4 leukemia,4.23 µM
same,TGI,MOLT-4 leukemia,38.5 µM
same,GI50,NCI-H522 lung,9.85 µM
same,TGI,NCI-H522 lung,25.6 µM
same,GI50,LOX IMVI melanoma,3.63 µM
same,TGI,LOX IMVI melanoma,15.8 µM
same,GI50,OVCAR-5 ovarian,8.67 µM
same,TGI,OVCAR-5 ovarian,26.7 µM
same,GI50,K-562 leukemia,3.19 µM
same,TGI,K-562 leukemia,> 100 µM
same,GI50,HL-60(TB) leukemia,6.54 µM
same,TGI,HL-60(TB) leukemia,43.9 µM
same,GI50,A549 NSCLC,3.99 µM
same,TGI,A549 NSCLC,22 µM
same,GI50,TK-10 renal,20.6 µM
same,TGI,TK-10 renal,40.9 µM
same,GI50,BT-549 breast,3.09 µM
same,TGI,BT-549 breast,18 µM
same,GI50,MALME-3M melanoma,6.38 µM
same,TGI,MALME-3M melanoma,21.1 µM
same,GI50,T-47D breast,5.38 µM
same,TGI,T-47D breast,47.3 µM
same,GI50,RPMI-8226 leukemia,5.34 µM
same,TGI,RPMI-8226 leukemia,> 100 µM
same,GI50,SF-268 CNS,12.8 µM
same,TGI,SF-268 CNS,> 100 µM
same,GI50,RXF 393 renal,1.88 µM
same,TGI,RXF 393 renal,6.11 µM
same,GI50,OVCAR-3 ovarian,5.2 µM
same,TGI,OVCAR-3 ovarian,25 µM
same,GI50,NCI-H226 lung,10.6 µM
same,TGI,NCI-H226 lung,28.6 µM
same,GI50,ACHN renal,10.3 µM
same,TGI,ACHN renal,22.2 µM
same,GI50,SW-620 colon,6.07 µM
same,TGI,SW-620 colon,34 µM
same,GI50,IGROV1 ovarian,5.89 µM
same,TGI,IGROV1 ovarian,23.1 µM
same,GI50,UO-31 renal,10.7 µM
same,TGI,UO-31 renal,22.6 µM
same,GI50,786-0 renal,2.87 µM
same,TGI,786-0 renal,9.8 µM
same,GI50,MDA-MB-231 breast,2.39 µM
same,TGI,MDA-MB-231 breast,6.41 µM
same,GI50,SK-OV-3 ovarian,18.1 µM
same,TGI,SK-OV-3 ovarian,36.4 µM
same,GI50,U251 CNS,3.02 µM
same,TGI,U251 CNS,10.7 µM
same,GI50,HS 578T breast,4.84 µM
same,TGI,HS 578T breast,88.9 µM
same,GI50,MCF7 breast,4.39 µM
same,TGI,MCF7 breast,33.4 µM
same,GI50,MDA-MB-468 breast,3.41 µM
same,TGI,MDA-MB-468 breast,15.4 µM
same,GI50,HCC-2998 colon,3.84 µM
same,TGI,HCC-2998 colon,15.3 µM
same,GI50,CCRF-CEM leukemia,4.73 µM
same,TGI,CCRF-CEM leukemia,> 100 µM
same,GI50,HOP-62 NSCLC,13.5 µM
same,TGI,HOP-62 NSCLC,29.1 µM
same,GI50,OVCAR-8 ovarian,2.84 µM
same,TGI,OVCAR-8 ovarian,9.15 µM
same,GI50,NCI-H23 lung,4.67 µM
same,TGI,NCI-H23 lung,26.1 µM
same,GI50,SF-295 CNS,13.3 µM
same,TGI,SF-295 CNS,28.5 µM
same,GI50,EKVX NSCLC,6.08 µM
same,TGI,EKVX NSCLC,30.4 µM
same,GI50,OVCAR-4 ovarian,3.43 µM
same,TGI,OVCAR-4 ovarian,26.6 µM
same,GI50,CAKI-1 renal,4.56 µM
same,TGI,CAKI-1 renal,21.5 µM
same,GI50,UACC-257 melanoma,14.3 µM
same,TGI,UACC-257 melanoma,32.2 µM
same,GI50,COLO 205 colon,15.4 µM
same,TGI,COLO 205 colon,37.9 µM
same,GI50,MDA-MB-435,3 µM
same,TGI,MDA-MB-435,11.5 µM
same,GI50,SNB-75 CNS,2.54 µM
same,TGI,SNB-75 CNS,17.3 µM
same,GI50,UACC-62 melanoma,12.7 µM
same,TGI,UACC-62 melanoma,32.1 µM
same,GI50,SF-539 CNS,3.27 µM
same,TGI,SF-539 CNS,11.3 µM
same,GI50,SN12C renal,3.15 µM
same,TGI,SN12C renal,14.5 µM
same,GI50,KM12 colon,5.84 µM
same,TGI,KM12 colon,73.4 µM
same,GI50,A498 renal,19.3 µM
same,TGI,A498 renal,39.8 µM
same,GI50,HCT-15 colon,3.87 µM
same,TGI,HCT-15 colon,17.9 µM
same,GI50,SR leukemia,2.38 µM
same,TGI,SR leukemia,> 100 µM
same,GI50,HCT-116 colon,1.97 µM
same,TGI,HCT-116 colon,4.46 µM
same,GI50,SK-MEL-2 melanoma,23.9 µM
same,TGI,SK-MEL-2 melanoma,60.4 µM
same,GI50,M14 melanoma,7.76 µM
same,TGI,M14 melanoma,27.8 µM
same,GI50,DU-145 prostate,5.48 µM
same,TGI,DU-145 prostate,37.6 µM
same,GI50,SNB-19 CNS,10.6 µM
same,TGI,SNB-19 CNS,48.5 µM
same,GI50,NCI-H460 lung,2.87 µM
same,TGI,NCI-H460 lung,8.25 µM
same,GI50,SK-MEL-5 melanoma,5.66 µM
same,TGI,SK-MEL-5 melanoma,20 µM
same,GI50,NCI/ADR-RES ovarian,2.24 µM
same,TGI,NCI/ADR-RES ovarian,6.11 µM
same,GI50,PC-3 prostate,17.2 µM
same,TGI,PC-3 prostate,> 100 µM
same,GI50,HT29 colon,7.14 µM
same,TGI,HT29 colon,25.8 µM
same,GI50,SK-MEL-28 melanoma,11.9 µM
same,TGI,SK-MEL-28 melanoma,26.6 µM
